This note sets out measurements from patent US20220142948A1, “COMPOSITIONS AND METHODS FOR MODULATING METABOLIC REGULATORS OF T CELL PATHOGENICITY” (The Broad Institute, Inc., priority 2019, published 2022).

Assay [1] relates to Th17 cells (Th17n, Th17p). The experiment in a line: T cell differentiation culture and flow cytometry (intracellular cytokine and transcription factor staining, CellTrace proliferation).
Procedure: Naïve CD4+CD44-CD62L+CD25-T cells were sorted using BD FACSAria sorter and activated with plate-bound anti-CD3 (1 μg/ml) and antiCD28 antibodies (2 μg/ml) in the presence of cytokines at a concentration of 5×10^5 cells/ml.
Naïve CD4+CD44-CD62L+CD25− T cells with or without including IL-17A.GFP+ were sorted using BD FACSAria sorter and activated with plate-bound anti-CD3 and antiCD28 antibodies (each 1 μg/ml) in the presence of cytokines at a concentration of 5×10^5 cells/ml. For T cell differentiations the following combinations of cytokines were used: pathogenic Th17 (Th17p): 25 ng/ml rmIL-6, 20 ng/ml rmIL-1b (both Miltenyi Biotec) and 20 ng/ml rmIL-23 (R&D systems); non-pathogenic Th17 (Th17n): 25 ng/ml rmIL-6 and 2 ng/ml of rhTGFb1 (Miltenyi Biotec). For differentiation experiments, cells were harvested at 72 hours and were performed in the presence or absence of 50 μM EGCG (Selleck Chemicals), 50 μM DHEA, 40 μM DCA, 10 μM Shikonin (all Sigma) as indicated.
Proliferation was assessed by staining with CellTrace Violet (Thermo Fisher Scientific) per manufacturer's instructions. All stainings were analyzed on a FACS LSR II (BD Bioscience) and using FlowJo software.
In assay [2] the test system is Th17n, Th17p and iTreg cells. The experiment in a line: Population (bulk) RNA-seq of in vitro differentiated T cells. Format: cell-based, mouse. On the procedure: (§1) RNA-seq. For population (bulk) RNA-seq, in vitro differentiated T-cells were sorted for live cells and lysed with RLT Plus buffer and RNA was extracted using the RNeasy Plus Mini Kit (Qiagen). Full-length RNA-seq libraries were prepared as previously described and paired-end sequenced (75 bp×2) with a 150 cycle Nextseq 500 high output V2 kit.
Bulk RNA-Seq and SMART-Seq2 analysis. Applicants aligned single-cell SMART-Seq2 libraries with Bowtie2, quantified TPM gene expression with RSEM, and performed QC as Applicants described in detail in a previous publication^51. This computational pipeline is a massively revised and updated version of the one originally used to analyze these libraries^19. Batch effects and other nuisance factors were normalized with a model chosen empirically with SCONE ^52. Bulk RNA-Seq were processed with a modified variant of the same pipeline. In the absence of UMIs, differentially expressed genes were called through a linear model fitted to TPM values with the limma R package and with a mean-variance trend added to the empirical bayes prior^53,54.
as §1
Bulk RNA libraries from DFMO- or vehicle-treated Th17p, Th17n, or Treg were studied with 3 replicates per condition for a total of 18 libraries as shown in FIG. 36A. Genes that are associated with a Th17 or Treg programs (orange and purple, respectively, in FIG. 36B-C) were determined by differential expression test between bulk RNA libraries of (vehicle-treated) Th17n and Th17p on one side and Treg on the other with BH-adjusted p<0.05 and absolute value of log 2 fold-change of at least 1.5. Genes associated with the Th17p or Th17n program (magenta and green, respectively, in FIG. 40A) were determined by differential expression test between bulk RNA libraries of (vehicle-treated) Th17p vs. Th17n with the same thresholds. The PCA shown in FIG. 36A was computed on the set of 3,414 that were differentially associated with Th17, Treg, Th17p, or Th17n programs by the aforementioned criteria to focus it on the subspace of the transcriptome relevant to Th17 pathogenicity phenotypes.
Applicants aligned single-cell SMART-Seq libraries with Bowtie2, quantified TPM gene expression with RSEM, and performed QC as Applicants described in detail in a previous publication (Fletcher et al., 2017). This computational pipeline is a massively revised and updated version of the one originally used to analyze these libraries (Gaublomme et al., 2015). Batch effects and other nuisance factors were normalized with a model chosen empirically with SCONE (Cole et al., 2019). Bulk RNA-Seq were processed with a modified variant of the same pipeline.
For the Smart-Seq libraries, due the absence of UMIs in the dataset, differentially expressed genes were called through a linear model _tted to TPM values with the limma R package and with a mean-variance trend added to the empirical Bayes prior (Ritchie et al., 2015). For the bulk RNA libraries, differentially expressed genes were called with limma-trend or limma-voom (Law et al., 2014) depending on the variance of library sizes, as recommended in the limma package manual (Smyth, 2019).

The subject of assay [3] is MOG35-55 specific T cells. The experiment in a line: Antigen-specific recall response of draining lymph node cells to MOG35-55 (thymidine incorporation, Legendplex). Format: in vivo, mouse. As to the method: FIG. 37A-37I—Targeting ODC1 and SAT1 alleviate EAE. (A) Schematics of the polyamine pathway; (B-D) The effects of chemical inhibition of ODC1 by DFMO on EAE. Wildtype mice were immunized with MOG35-55/CFA to induce experimental autoimmune encephalomyelitis and followed for clinical scoring. DFMO were provided in drinking water from day 0 for 10 days in experimental group. B, Clinical score over time. […] C, Antigen-specific cell proliferation is measured by thymidine incorporation after culturing cells isolated from draining lymph node of mice (d15 post immunization) with increasing dose of MOG35-55 peptide for 3 days. D, Flow cytometric analysis of intracellular Foxp3 expression in T cells isolated from CNS at day 15 post immunization. (E-I) The effects of genetic perturbation of SAT1. E, The effects of SAT1 deficiency on metabolome. Abundance of metabolites in the polyamine pathway were determined by LC/MS based metabolomics. Th17n and Th17p cells were differentiated in vitro from naïve cells isolated from WT or SAT1^−/− mice. (F-I) The effects of SAT1 deficiency on EAE. EAE were induced as in (B) in wildtype and SAT1^fl/flCD4^cre mice. F, Clinical score (left) and histological score (right) showing the number of CNS infiltrates show representative experiment with 5 WT and 8 CKO mice. G-H, Cells were isolated from draining lymph node of mice (d23 post immunization) and co-cultured with increasing dose of MOG35-55 peptide for 3 days. Antigen-specific cell proliferation is measured by thymidine incorporation (G) and antigen-specific cytokine secretion by legendplex (H). I, Flow cytometry analysis of intracellular transcription factor expression in CD4 T cells isolated from CNS day 15 post immunization. Linear regression analysis (b, c, f, g), two-way anova (e) and student t test (d, i) were used for statistical analysis.
FIG. 46A-46J—EGCG exacerbates and DHEA ameliorates Th17-induced EAE in vivo. 2D2 TCR-transgenic Th17 cells were adoptively transferred after differentiation in vitro in the presence of an inhibitor or vehicle as indicated. (A, C, G) Clinical outcome of EAE; (B, D) Histological score based on cell infiltrates in meninges and parenchyma of CNS; (E, F) Draining lymph node (cervical) from respective mice were isolated and pulsed with increasing dose of MOG35-55 peptide for 3 days and (E) subjected to thymidine incorporation assay; or (F) measurement of cytokine secretion by Legendplex and flow cytometry. Concentrations were normalized through division by the respective response to no antigen control (H-I) Independent pathological report of CNS isolated from mice with EAE at end point (d35 for EGCG experiments; d28 for DHEA experiment); Optic nerves were not found in the histologic section from one animal in the EGCG+IL-23 group. (J) Representative histology of spinal cord and spinal nerve roots. […] PC, posterior column; PH, posterior horn. Individual mouse numbers are indicated. […] All are H. & E., 40× objective. Three similar experiments were performed.
For orientation: Uptake of a labelled nucleoside into DNA is a usual measure of proliferation.

Setting [4] is: cMAF fl/fl CD4cre Th17 cells vs control.
The mark [5] stands for this setting: mice transferred with EGCG-treated Th17n cells.

“Also recorded” adds a separate entry of the source.

Turning to `NCCC[C@](N)(C(=O)O)C(F)F` [DFMO, 2-(difluoromethyl)ornithine], in assay [1] (DFMO at 4-5 days only (expansion phase)), the “IL-17+ cells” value is recorded as “no change”. In assay [1] (DFMO at both days 1-3 and days 4-5), the “IL-17+ cells” value is recorded as “decrease”. The “IL-17+ cells” value in assay [1] (DFMO at days 1-3 only (differentiation)) is recorded as “decrease”. In assay [1] (FACS, Th17 condition not stated), the “IL-17 positive CD4 T cells” value is given as “decreased”. Further, the cell proliferation entry in assay [1] (Th17 cultures) is on record as “less cell proliferation; also recorded: reduced cell proliferation”. In addition, the “frequency of Foxp3+ cells / Foxp3 expression” value in assay [1] (Th17n (non-pathogenic) condition) was “increase; also recorded: increased frequency”. Besides, the “upregulation of Foxp3 by DFMO” value in assay [1] (Th17n cells, absence of JMJD3 (JMJD3fl/flCD4cre)) was “partially abrogated”. Besides, in assay [1] (Th17p cells), the Rorgt expression entry is given as “suppressed” and the Tbet expression result was “suppressed”. In assay [1] (setting [4]), the “effect of DFMO on Foxp3 upregulation” value is reported as “partially rescued” and the “effect of DFMO on expression of IL-17” value is given as “did not impact”. Moreover, the “frequency of IL-17+ cells” value in assay [1] (cells that have divided just once) was “significantly reduced”. Also, in assay [1] (condition not stated), the “FoxP3 CD4 T cells” value is “increase”. Also, in assay [1] (intracellular staining, both Th17n and Th17p cells), the IL-17 expression result was “suppresses IL-17 expression; also recorded: significantly inhibited”. For the same compound, the Rorgt expression entry in assay [1] (pathogenic and non-pathogenic Th17 cells) was “did not consistently alter; also recorded: does not alter”. For the same compound, in assay [2], the “expression of chromatin modifiers / chromatin associated genes” value is given as “alters chromatin associated genes; also recorded: significant changes”; the “genes shared / expressed comparably between Th17 and Treg cells” value is “do not change; also recorded: no significant effect”. The “transcriptome shift (principal component analysis)” value in assay [2] (Th17 and iTreg cells) is listed as “shift Th17 cells to Treg-like transcriptome; also recorded: shift the cells towards Treg gene expression; also recorded: clearly driving cells towards Treg cells; also recorded: driving Th17 cells towards Treg cell profiles; also recorded: promotes Treg-like transcriptome”. Further, in assay [2] (Th17 cells), the Foxp3 result is “upregulated”, the Il17a entry is on record as “significantly suppressed”, the Il17f result is “significantly suppressed” and the Il23r result is listed as “significantly suppressed”. For the same compound, in assay [2] (Th17n and Th17p cells), the “Th17 specific genes / transcriptome” value was “reducing canonical Th17 genes; also recorded: shift Th17 specific genes down; also recorded: suppressed” and the “Treg specific genes / transcriptome” value was “shift Treg specific genes up; also recorded: promoted”. For the same compound, in assay [2] (Th17p cells), the “proinflammatory state genes (upregulated in Th17p)” value is recorded as “downregulation” and the “regulatory state genes (upregulated in Th17n)” value is listed as “significant upregulation”. In addition, in assay [3] (draining lymph node of DFMO treated EAE animals), the “antigen-specific recall response / proliferation (thymidine incorporation)” value is “decreases H3 incorporation; also recorded: decreases proliferation of immune cells; also recorded: significantly reduced”.

In the case of epigallocatechin-3-gallate [EGCG], in assay [1] (Th17n cells), the IFNg expression result is reported as “upregulation”, the IL-10 entry is listed as “suppression” and the Tbet expression result is on record as “upregulation”. Further, the “IL-17 positive CD4 T cells / IL-17 expression” value in assay [1] (glycolysis enzyme inhibitors, non-pathogenic or pathogenic Th17 conditions, cells after one division) is reported as “increase”. Moreover, in assay [2] (Th17n), the CASP1 entry is listed as “up-regulated; also recorded: upregulating”, the IKZF3 entry was “downregulated; also recorded: downregulating”, the IL7R result is given as “up-regulated; also recorded: upregulating” and the IL22 result is recorded as “up-regulated; also recorded: upregulating”. For the same compound, in assay [2] (Th17n cells), the “pro-pathogenic transcriptional program / module” value is recorded as “promotes the pro-pathogenic module; also recorded: clearly strengthened” and the pro-regulatory module entry is listed as “suppresses the pro-regulatory module”. For the same compound, in assay [2] (bulk RNA-Seq of d1 Th17n and Th17p cells), the “position on PC1 (pathogenicity phenotype)” value is on record as “toward a more pathogenic one; also recorded: shifted cell profiles towards a more pathogenic state”. For the same compound, in assay [3] (setting [5]), the “antigen-specific T cell proliferation” value is “only a small difference”, the “secretion of IL-6 in response to antigen” value was “significant increase”, the “secretion of IL-17F in response to antigen” value was “significant increase” and the “secretion of IL-17 in response to antigen” value is recorded as “significant increase”. Further, in assay [3] (setting [5]), the “secretion of IL-22 in response to antigen” value is listed as “significant increase”.
